Here are results for 13 compounds from patent US12559454B2, “Benzenesulfonamide derivatives and uses thereof” (2692372 Ontario, Inc., priority 2019, dated 2026).

Bounds are passed on as bounds.

Broadly, the IC50 is the concentration that inhibits the measured activity by half. Low values mean greater potency in that assay, high ones weaker potency in that assay. The term kinact denotes the rate constant of inactivation at saturating inhibitor.

Data set [1] has as its target T1, His-tagged BTK kinase domain (Homo sapiens, UniProt Q06187).
T1 construct: Intact His-tagged BTK kinase domain (SOURCE)(10 μM) was incubated
Put plainly: Mass spectral analysis of tryptic digest of BTK kinase domain. The note with it: 10 μM BTK KD, 10 μM compound, 45 min; for C481 covalent modification: tryptic peptide 467-487. The data set is classed as binding. As to the method: A protein kinase that is inhibited by compound and/or pharmaceutically acceptable salt of the present disclosure may be subjected to mass spectral analysis to assess the formation of permanent, irreversible covalent adducts. […] Such methods identify permanent, irreversible covalent protein adducts by observing a mass peak that corresponds to the mass of a control sample plus the mass of an irreversible adduct.
After the incubation time, the reactions were quenched by acetone precipitation and the pellet was re-dissolved in 8 M Urea. […] The BTK protein band was then excised and subjected to an in-gel trypsin digest by reducing the protein (5 mM DTT), alkylating the thiols with iodoacetamide (15 mM), and then incubating the protein gel band with trypsin in a 37 C water bath (4 hours). The tryptic digestion was then quenched by the addition of trifluoroacetic acid, and peptides were removed from the gel band by sonicating with increasing amounts of acetonitrile (0%, 30%, & 60%). Peptides were then purified using C18 ziptips, spotted on the MALDI target plate with α-cyano-4-hydroxycinnamic acid as the desorption matrix (10 mg/mL in 0.10% TFA:Acetonitrile 50:50), and analyzed in reflectron mode.

For data set [2], the system named is normal primary human fibroblast (NHF) cell lines. Put plainly: Toxicity study, CellTiter-Blue viability in normal primary human fibroblasts (NHF). The data set is classed as cell-based. The following applies: NHF cells, 72 hrs exposure. As to the method:
Anti-cancer efficacy of exemplary compounds of this application was assessed in vitro in different cancer cell lines. Cell viability was examined following treatment at various concentration of inhibitor (0.097656-50 μM) using a cell Titer-Blue cell viability assay. 1×10^4 cells (NHF cells)/well were plated in 96-well assay plates in culture medium. All cells were grown in DMEM, IMDM and RPMI-1640 supplemented with 10% FBS. After 24 hrs, test compounds and vehicle controls were added to appropriate wells so the final volume was 100p in each well. The cells were cultured for the desired test exposure period (72 hrs) at 37° C. and 5% CO2. The assay plates were removed from 37° C. incubator and 20 μl/well of CellTiter-Blue® Reagent was added. The plates were incubated using standard cell culture conditions for 1-4 hours and the plates were shaken for 10 seconds and record fluorescence at 560/590 nm.
Representative data for exemplary compounds against select normal primary human fibroblast (NHF) cell lines are presented in the following Table 7.
Background: Alamar Blue is a resazurin reagent that responds to reducing activity.

The nature of data set [3]: Parallel artificial membrane permeability assay (PAMPA), Example C4. The note with it: PBS pH 7.4, 10 μM, 16 hours. The data set is classed as in vitro ADME. As to the method: Assay Procedures. […] 7) Cover with plate lid. Vortex at 750 rpm for 100 seconds. […] Determine the compound concentrations by LC/MS/MS.
Data set [4] addresses T2, BTK (Homo sapiens, UniProt Q06187). Put plainly: In vitro BTK inhibition (no preincubation). The data set is classed as biochemical.
Data set [5] addresses T2, BTK. Put plainly: BTK irreversible inhibition, enzyme kinetic analysis. The data set is classed as biochemical. The following applies: 0.1 nM BTK, 500 μM ATP. On the procedure: One of ordinary skill in the art will recognize that this is consistent with the irreversible inhibition of BTK by compound I-A1.
One of ordinary skill in the art will recognize that this is consistent with the irreversible inhibition of BTK by compound I-A6.
One of ordinary skill in the art will recognize that this is consistent with the irreversible inhibition of BTK by compound 3A-2.
The shift of IC50 to a lower value after pre-incubation of the enzyme indicates to one of ordinary skill in the art that a significant portion of the enzyme was inhibited irreversibly during the incubation period.

Data set [6] has as its target T3, JAK3 (Homo sapiens, UniProt P52333).
T3 sequence (P52333 1-1124): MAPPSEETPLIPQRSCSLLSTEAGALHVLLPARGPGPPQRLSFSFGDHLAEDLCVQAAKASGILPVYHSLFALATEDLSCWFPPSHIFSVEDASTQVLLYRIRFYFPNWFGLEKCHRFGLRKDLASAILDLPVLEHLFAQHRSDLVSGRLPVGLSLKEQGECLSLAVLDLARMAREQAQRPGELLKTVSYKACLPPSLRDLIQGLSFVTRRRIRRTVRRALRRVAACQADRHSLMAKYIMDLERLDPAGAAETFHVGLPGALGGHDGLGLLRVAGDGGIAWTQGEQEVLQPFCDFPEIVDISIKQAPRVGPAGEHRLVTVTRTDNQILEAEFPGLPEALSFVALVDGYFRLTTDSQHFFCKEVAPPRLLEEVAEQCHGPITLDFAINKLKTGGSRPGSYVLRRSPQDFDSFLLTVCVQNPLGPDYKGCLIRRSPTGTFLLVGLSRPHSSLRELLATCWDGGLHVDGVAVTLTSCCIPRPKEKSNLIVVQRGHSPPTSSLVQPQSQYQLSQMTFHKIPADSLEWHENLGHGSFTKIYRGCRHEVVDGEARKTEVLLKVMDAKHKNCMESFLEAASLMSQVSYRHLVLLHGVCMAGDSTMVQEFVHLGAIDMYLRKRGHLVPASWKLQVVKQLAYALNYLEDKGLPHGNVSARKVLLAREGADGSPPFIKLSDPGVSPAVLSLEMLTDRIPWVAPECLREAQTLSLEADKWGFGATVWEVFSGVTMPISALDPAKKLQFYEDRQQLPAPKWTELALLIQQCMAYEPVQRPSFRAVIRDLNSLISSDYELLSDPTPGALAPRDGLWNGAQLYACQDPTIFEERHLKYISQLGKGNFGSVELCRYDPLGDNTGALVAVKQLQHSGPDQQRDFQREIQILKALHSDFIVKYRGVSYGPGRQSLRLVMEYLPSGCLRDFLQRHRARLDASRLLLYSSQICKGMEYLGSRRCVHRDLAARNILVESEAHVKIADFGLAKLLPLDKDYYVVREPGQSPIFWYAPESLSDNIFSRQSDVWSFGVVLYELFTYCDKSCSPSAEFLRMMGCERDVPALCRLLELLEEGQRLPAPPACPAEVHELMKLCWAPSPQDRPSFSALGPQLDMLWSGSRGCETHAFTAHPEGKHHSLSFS
Put plainly: In vitro JAK3 inhibition (no preincubation). The data set is classed as biochemical. On the procedure: In vitro BTK and JAK3 inhibition studies are shown in Table 17 and Table 18 (no preincubation).

Data set [7] deals with T2, BTK. Put plainly: BTK washout experiment. The data set is classed as biochemical. The following applies: 6-h incubation, 50 nM BTK, 177 nM compound, 400-fold dilution; relative to DMSO. As to the method:
After a 3-h incubation of 40 nM BTK in the presence of 296 nM of compound I-A1, a 400-fold dilution was performed to remove excess inhibitor.
After a 6-h incubation of 50 nM BTK in the presence of 280 nM of compound 3A-6, a 400-fold dilution was performed to remove excess inhibitor.
By way of contrast, a “washout” experiment performed with ARQ-531 gives a very different result, because this compound lacks a warhead and is known to inhibit BTK reversibly. After a 6-h incubation of 50 nM BTK in the presence of 177 nM of ARQ-531, a 400-fold dilution was performed to remove excess inhibitor. […] This indicates to one of ordinary skill in the art that the enzyme was not inhibited irreversibly during the incubation with ARQ-531.

Data set [8] deals with T2, BTK. Put plainly: Selected kinase inhibition, BTK (Table 6). The data set is classed as biochemical.
Data set [9] deals with RL human non-Hodgkin's lymphoma B cell line. Put plainly: Cell viability in RL cells (Table 6). The data set is classed as cell-based.

T1 sequence (Q06187 402-655 limits assumed): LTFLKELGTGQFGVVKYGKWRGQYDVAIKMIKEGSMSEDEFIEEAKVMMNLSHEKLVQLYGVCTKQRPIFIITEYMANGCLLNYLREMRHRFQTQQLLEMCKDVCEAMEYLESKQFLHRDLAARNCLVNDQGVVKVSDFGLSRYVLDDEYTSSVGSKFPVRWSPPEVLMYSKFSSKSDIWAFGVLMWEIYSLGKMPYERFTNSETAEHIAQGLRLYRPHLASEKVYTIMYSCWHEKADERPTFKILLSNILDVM
T2 sequence (Q06187 whole entry, species assumed): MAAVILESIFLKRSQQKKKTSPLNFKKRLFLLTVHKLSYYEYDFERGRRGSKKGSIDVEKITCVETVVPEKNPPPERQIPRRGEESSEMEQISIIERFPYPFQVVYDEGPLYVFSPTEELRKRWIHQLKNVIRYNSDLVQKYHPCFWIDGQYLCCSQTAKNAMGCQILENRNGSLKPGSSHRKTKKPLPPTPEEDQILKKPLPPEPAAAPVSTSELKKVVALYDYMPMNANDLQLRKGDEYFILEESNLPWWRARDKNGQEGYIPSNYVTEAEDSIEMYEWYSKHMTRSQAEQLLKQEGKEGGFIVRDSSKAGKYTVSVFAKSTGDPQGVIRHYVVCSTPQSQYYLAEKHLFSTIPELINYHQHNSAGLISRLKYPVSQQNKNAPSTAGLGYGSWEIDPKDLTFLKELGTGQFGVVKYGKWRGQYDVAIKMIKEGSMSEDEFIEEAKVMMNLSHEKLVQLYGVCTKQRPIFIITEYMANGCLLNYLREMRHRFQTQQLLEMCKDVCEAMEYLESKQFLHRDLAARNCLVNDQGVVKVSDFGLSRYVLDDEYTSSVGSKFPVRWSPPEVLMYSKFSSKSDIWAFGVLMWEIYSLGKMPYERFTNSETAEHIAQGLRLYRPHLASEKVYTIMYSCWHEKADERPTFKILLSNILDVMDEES

As for `COCCOc1ccc(Nc2ncc(F)c(Nc3ccc(NS(=O)(=O)c4c(F)c(F)c(F)c(F)c4F)cc3)n2)cc1` [Compound 3A-38, 2,3,4,5,6-pentafluoro-N-(4-((5-fluoro-2-((4-(2-methoxyethoxy)phenyl)amino)pyrimidin-4-yl)amino)phenyl)benzenesulfonamide], the C481 covalent modification result in data set [1] was “covalent modification and ✓”.
On the same count and under the same terms, then `COCCOc1ccc(Nc2ncc(F)c(NCCNS(=O)(=O)c3c(F)c(F)c(F)c(F)c3F)n2)cc1` [Compound 3A-37, 2,3,4,5,6-pentafluoro-N-(2-((5-fluoro-2-((4-(2-methoxyethoxy)phenyl)amino)pyrimidin-4-yl)amino)ethyl)benzenesulfonamide], with “covalent modification and ✓”.
Take `Nc1ncnc2c1c(-c1ccc(Oc3ccccc3)cc1)nn2[C@@H]1CCCN(S(=O)(=O)c2c(OC3CC3)c(F)c(F)c(F)c2OC2CC2)C1` [I-A7, (R)-1-(1-((2,6-dicyclopropoxy-3,4,5-trifluorophenyl)sulfonyl)piperidin-3-yl)-3-(4-phenoxyphenyl)-1H-pyrazolo[3,4-d]pyrimidin-4-amine]: the IC50 in [2] was over 25000 nM. Also, the “−Log Pe” value in [3] is reported as “C (>6 to ≤7)”.
Regarding `Nc1ncnc2c1c(-c1ccc(Oc3ccccc3)cc1)nn2[C@@H]1CCN(S(=O)(=O)c2cc(F)c(F)c(F)c2F)C1` [Compound 3A-4, 3-(4-phenoxyphenyl)-1-[(3R)-1-(2,3,4,5-tetrafluorophenyl)sulfonylpyrrolidin-3-yl]pyrazolo[3,4-d]pyrimidin-4-amine], the C481 covalent modification result in data set [1] was “covalent modification and ✓”.
Turning to `Nc1ncnc2c1c(-c1ccc(Oc3ccccc3)cc1)nn2[C@@H]1CCCN(S(=O)(=O)c2c(F)c(F)c(F)c(F)c2OCC(F)(F)F)C1` [Compound 3A-2, (R)-3-(4-phenoxyphenyl)-1-(1-((2,3,4,5-tetrafluoro-6-(2,2,2 trifluoroethoxy)phenyl)sulfonyl)piperidin-3-yl)-1H-pyrazolo[3,4-d]pyrimidin-4-amine], the IC50 in data set [4] (Table 17) is 100 to 1000 nM. Moreover, the “inhibition profile by enzyme kinetic analysis” value in data set [5] was “time-dependent inhibition”. In addition, in data set [5] (saturation kinetics), the kinact came to 0.00169 s⁻¹. Further, in [5] (saturation kinetics of irreversible inhibition), the Ki stood at 120 nM.
As to `C[C@H]1CC[C@@H](Nc2ncnc3[nH]ccc23)CN1S(=O)(=O)c1c(F)c(F)c(F)c(F)c1F` [Compound 3A-25, N-((3R,6S)-6-methyl-1-((perfluorophenyl)sulfonyl)piperidin-3-yl)-7H-pyrrolo[2,3-d]pyrimidin-4-amine], the IC50 in [6] lay within 1000 to 10000 nM.
The compound `Nc1ncnc2c1c(-c1ccc(Oc3ccccc3)cc1)nn2CCNS(=O)(=O)c1c(F)c(F)c(F)c(F)c1F` [Compound 3A-9, N-[2-[4-amino-3-(4-phenoxyphenyl)pyrazolo[3,4-d]pyrimidin-1-yl]ethyl]-2,3,4,5,6-pentafluoro-benzenesulfonamide] returned an IC50 in data set [4] (Table 18) of 0.1 to 10 nM. In data set [1], the C481 covalent modification result is “covalent modification and ✓”. Moreover, in [1] (tryptic peptide 526-536), the C527 covalent modification result is “covalent modification and ✓”.
As for `O=C(c1ccc(Oc2ccccc2)cc1Cl)c1c[nH]c2ncnc(N[C@@H]3CC[C@@H](CO)OC3)c12` [ARQ-531, reference compound], the “residual activity of the enzyme” value in [7] was “recovered all of its activity”.
With `CN(CCNc1ncnc2[nH]ccc12)S(=O)(=O)c1c(F)c(F)c(F)c(F)c1F` [Compound 3A-28, N-(2-((7H-pyrrolo[2,3-d]pyrimidin-4-yl)amino)ethyl)-2,3,4,5,6-pentafluoro-N-methylbenzenesulfonamide], the IC50 is 100 to 1000 nM in [4] (Table 18) and 1000 to 10000 nM in data set [6].
Consider `Nc1ncnc2c1c(-c1ccc(Oc3ccccc3)cc1)nn2[C@@H]1CCCN(S(=O)(=O)c2cc(F)c(F)c(F)c2F)C1` [I-A4, (R)-3-(4-phenoxyphenyl)-1-(1-((2,3,4,5-tetrafluorophenyl)sulfonyl)piperidin-3-yl)-1H-pyrazolo[3,4-d]pyrimidin-4-amine], for which the IC50 in [8] is 10 to 100 nM; in [2] it was over 25000 nM. In addition, in data set [3], the “−Log Pe” value is reported as “B (>5 to ≤6)”.
Consider `Nc1ncnc2c1c(-c1ccc(Oc3ccccc3)cc1)nn2S(=O)(=O)c1c(F)c(F)c(F)c(F)c1F` [I-A3, 1-((perfluorophenyl)sulfonyl)-3-(4-phenoxyphenyl)-1H-pyrazolo[3,4-d]pyrimidin-4-amine], for which the values for the IC50 in data set [8] and in data set [9] were 100 to 1000 nM and 1000 to 10000 nM, respectively.
On to `Nc1ncnc2c1c(-c1ccc(Oc3ccccc3)cc1)nn2[C@H]1CCCN(S(=O)(=O)c2c(F)c(F)c(F)c(F)c2F)C1` [I-A2, (S)-1-(1-((perfluorophenyl)sulfonyl)piperidin-3-yl)-3-(4-phenoxyphenyl)-1H-pyrazolo[3,4-d]pyrimidin-4-amine], for which the values for the IC50 in data set [8], in [9] and in data set [2] were 100 to 1000 nM, 1000 to 10000 nM and 1000 to 10000 nM, respectively.
Consider `O=S(=O)(NCCNc1ncnc2[nH]ccc12)c1c(F)c(F)c(F)c(F)c1F` [Compound 3A-27, N-(2-((7H-pyrrolo[2,3-d]pyrimidin-4-yl)amino)ethyl)-2,3,4,5,6-pentafluorobenzene sulfonamide], for which the IC50 in data set [4] (Table 18) is 0.1 to 10 nM; in data set [6] it was 1000 to 10000 nM.
